Measured values taken from article PMC9695356, “Development and Validation of an LC-MS/MS Method for Simultaneous Determination of Short Peptide-Based Drugs in Human Blood Plasma” (Molecules, 2022).

Legend:
[1] = clinical; conditions: male, human, in vivo, sc
[2] = LC-MS/MS quantitation of GnRH analogs in blood plasma of prostate cancer patients (therapeutic monitoring); conditions: patients on goserelin therapy; conclusion from the obtained data
[3] = native hormone; cited from earlier work
Text: Gonadotropin-releasing hormone (GnRH) is a decapeptide released by hypothalamic neurons, which stimulates GnRH-mediated pituitary secretion of both luteinizing hormone (LH) and follicle-stimulating hormone (FSH). […] Goserelin, buserelin, and triptorelin are GnRH agonists, a relatively new class of drugs. The long-term administration of these agonists results in a significant decrease in estrogen and testosterone blood levels. ...

**Q.** Which results are given for CC(C)C[C@H](NC(=O)[C@@H](COC(C)(C)C)NC(=O)[C@H](Cc1ccc(O)cc1)NC(=O)[C@H](CO)NC(=O)[C@H](Cc1c[nH]c2ccccc12)NC(=O)[C@H](Cc1cnc[nH]1)NC(=O)[C@@H]1CCC(=O)N1)C(=O)N[C@@H](CCCNC(=N)N)C(=O)N1CCC[C@H]1C(=O)NNC(N)=O [Goserelin, Goserelin acetate]?
**A.** level at 8 day of a 28-day dosing cycle ([1]; 3.6 mg): 0.95 ng/mL; level at 16 day of a 28-day dosing cycle ([1]; 3.6 mg): 16.2 ng/mL; level at 10 day of an 84-day dosing cycle ([1]; 10.8 mg): 7.81 ng/mL; level at 29 day of an 84-day dosing cycle ([1]; 10.8 mg): 13.6 ng/mL; level at 59 day of an 84-day dosing cycle ([1]; 10.8 mg): 0.55 ng/mL; Time at which plasma concentration starts to increase [2]: second week

**Q.** For Gonadotropin-releasing hormone [GnRH], which Half-life [3] is on record?
**A.** The Half-life was “several minutes”.
